Assay results reported in US20090328246A1, “USE OF THE ocp3 MUTATION TO REGULATE DROUGHT RESISTANCE IN PLANTS” (Calantia Biotech, S.L., priority 2006, published 2009).

What was measured:
Assay type in all cases: in vivo, Arabidopsis thaliana
[1] = test system: ocp3 plants; assay: Effect of exogenous ABA on development of seedlings in MS-Agar plates; conditions: 0.8 μM ABA in MS-Agar; ocp3 mutant vs wt (Col-0); 17 days after seeding
Description: To study any possible effect of exogenous ABA application in the development of ocp3 plants, seeds of said mutant were seeded in MS-Agar plates, as well as in MS-Agar plates supplemented with an ABA concentration of 0.8 μM, and always using the wt wild type genotype (Col-0) as control plants in these experiments. […] Based on this it could therefore be deduced that the loss of function which can be attributed to the ocp3 mutation yields a hypersusceptibility to the ABA hormone and therefore the normal function of the OCP3 gene would be compatible with that of regulating any repression aspect of the ABA hormone transduction pathway, either in the sense of its synthesis or in that of its correct perception.
FIG. 2. Effect of ABA in the development of ocp3 plants compared with wt (Col-0) plants. The seeds were sterilized, stratified at 4° C. for 4 days and seeded in plates with MS-Agar medium and MS-Agar supplemented with 0.8 μM ABA. The photographs were taken 17 days after the seeding.
The plants were grown in Jiffy-7 compacted substrate (Clause-Tezier Iberica, Valencia, Spain) at 23° C. with a photoperiod of 10 hours of light and 14 of darkness. For the in vitro culture, the seeds were sterilized by adding 70% ethanol for 2 minutes and commercial 30% lye for 7 minutes. Subsequently, 5-7 washes with sterile water were performed and they were stratified at 4° C. for 4 days. […]

[2] = test system: rd29A, rd29B and rd22 water stress marker genes; assay: RT-PCR expression of rd29A, rd29B and rd22 water stress marker genes after exogenous ABA application
Text: A possibility that would explain the greater sensitivity to ABA of the ocp3 mutant as well as the increase in drought resistance could be that the mutation in said gene had caused a constitutive activation of the ABA-dependent signaling pathway and the final result of which would be the constitutive expression of dehydration-responsive genes which increase the protection levels against the damage caused by water stress and therefore this would aid the plants in better resisting this type of stress. For the purpose of studying this possibility, a molecular analysis was conducted, determining the expression levels (measured as accumulation of the corresponding mRNA by RT-PCR) of several signaling marker genes in response to dehydration, both of those genes activated by the ABA-dependent route, and of those genes the activation of which is independent of the ABA route. The rd29B and rd22 genes were used as markers of the ABA-dependent pathway, whereas rd29A was used for the ABA-independent pathway. The levels of the transcripts of these genes at different times (0, 1 h, 3 h and 6 h) were analyzed after incubating the plants in a liquid medium with 150 μM ABA.
FIG. 3. Analysis of the expression by RT-PCR of rd29A, rd29B and rd22 water stress marker genes in Col-0 and ocp3 plants, using the ELF1α gene as a control. The plants were grown in MS-Agar plates for 3 weeks and the RNAs were extracted from samples collected at different times. (A) Expression levels after exogenous 150 μM ABA application in a liquid culture. (B) Expression levels 10 minutes, 30 minutes and 1, 3 and 6 hours after subjecting the plants to dehydration.
FIG. 9. Comparison of the induction by ABA of the expression of rd29A, rd29B and rd22 water stress marker genes assayed by RT-PCR in RNA samples from Col-0, ocp3, aba2-1, abi1-1 and ocp3abi1-1 plants, and using the accumulation of the mRNA corresponding to the ELF1α gene as a control. The procedure was the same as that described for FIG. 3. […]
The semi-quantitative RT-PCR technique was used to determine the relative amounts of some mRNAs of interest. […]

[3] = test system: OCP3 gene; assay: Real-time PCR relative expression of OCP3 after exogenous ABA application; conditions: 150 μM ABA; wt plants; evident at very short times
Description: In both drought and dehydration conditions, plants respond by increasing the endogenous levels of ABA, which involves the activation of a signaling cascade having as a result a series of changes at the transcriptomic level. To study the possible effect that ABA may have in transcriptional OCP3 regulation in wt plants, the relative levels of the mRNA corresponding to the OCP3 gene is measured by quantitative RT-PCR (q-RT-PCR) at different times after applying ABA, as well as after subjecting the plants to dehydration stress. The ABI1 gene was used as a control in the experiments, the expression of which is known to be induced in response to both ABA and dehydration. As can be observed in FIG. 4, both as a result of applying 150 μM ABA and after imposing a water stress to the seedlings, a sharp drop of the accumulation levels of the transcript corresponding to the OCP3 gene is observed. Said repression in the expression of the OCP3 gene as a result of the treatment with ABA or of dehydration, already becomes evident at very short times. […]
FIG. 4. Relative expression levels of OCP3 and ABI1 in response to exogenous 150 μM ABA application (A) and dehydration (B) measured by real-time PCR. […]
The samples were analyzed in triplicate and the real-time PCR reactions were performed using Sybr Green PCR Master Mix (Applied Biosystems) in an ABI PRISM 7000 sequence detector. […]

[4] = test system: stomata of ocp3 and wt plants; assay: Measurement of the stomatal closure induced by ABA in epidermal peelings of rosette leaves; conditions: 100 μM ABA
Text: There are different stimuli modifying the rate as well as the degree of opening/closure of the stomata and, among them, subjecting the plants to drought or depriving them of light should be emphasized, and both signalings are always directly related to an increase in the endogenous levels of ABA, a hormone determining the closure of stomata under inductive or stress conditions. To determine if there is any defect in ABA-mediated signaling in the ocp3 mutant, the decision was made to compare the stomatal closure rate between ocp3 plants and Col-0 plants, occurring after direct ABA application in epidermal samples (peelings) obtained from rosette leaves. […] Therefore, it is inferred from these experiments that the ocp3 mutant is more sensitive to the ABA hormone and this translates into an early response to this hormone which is manifested with an accelerated stomatal closure. The greater susceptibility to ABA is consistent with the hypersusceptibility shown by the seedlings when they are germinated and grown in the presence of ABA (FIG. 2). Furthermore, said hypersusceptibility to ABA could explain the drought resistance phenotype, since drought causes increases in ABA synthesis which in turn lead to the closure of stomata to prevent the loss of water by evapotranspiration. Thus, since the ocp3 mutant is more sensitive to ABA, it would accelerate the closure of its stomata with a drought signal and this promptness in the response could provide it with an advantage to resist the metabolic drawbacks derived from water privation better or for more time.
FIG. 7. Measurement of the stomatal closure induced by ABA (100 μM) in ocp3 and wt plants. Rosette leaves were detached from 6 week-old plants of the ocp3 and Col-0 genotypes and incubated in a solution (10 mM Mes-KOH pH 6.15 and 30 mM KCl) for 2 hours to induce the opening of the stomata. Then, 100 μM ABA was added to induce the closure of the stomata. The opening of the ostiole was measured at the different times indicated in epidermal peelings of the leaves with the different genetic backgrounds. […]

[5] = ABA application, abi1-1 and ocp3 abi1-1 double mutant, compared with wt or ocp3

CC1=CC(=O)CC(C)(C)[C@@]1(O)/C=C/C(C)=C\C(=O)O [ABA, abscisic acid]
development of the ocp3 mutant in the presence of ABA [1]: arrested in the first stages of germination | induction and accumulation levels of rd29A, rd29B, rd22 transcripts, wt (Col-0) vs ocp3 ([2]; 150 μM ABA, liquid medium, 0, 1 h, 3 h, 6 h): no observable differences | induction of the expression of the rd29A gene [2, 5]: greatly reduced | induction of the expression of the rd29B and rd22 genes [2, 5]: virtually annulled | accumulation levels of the OCP3 transcript [3]: sharp drop | closure of the stomata in ocp3 plants ([4]; 30 minutes after applying, ocp3 plants): accelerated closure | closure of the stomata in wt control ([4]; 30 minutes after applying, wt (Col-0)): has still not started the process for closing its stomata | state of the stomata of ocp3 and wt plants ([4]; 2 hours after applying, ocp3 and wt plants): completely closed
